Nine compounds from patent US8541404B2, “Inhibitors of the human aldosterone synthase CYP11B2” (ElexoPharm GmbH, priority 2009, dated 2013) can be followed below.

pIC50: −log10 of the molar value.

For orientation: pIC50 means the negative decadic logarithm of the IC50, by convention in mol/L. One may read the melting point as the temperature of the solid-liquid transition.

Data set [1] concerns the target T1, human aldosterone synthase (CYP11B2) (Homo sapiens, UniProt P19099).
T1 construct: expressed in transfected cells; host or cells: V79 MZh11B2 (V79 Chinese hamster cells)
T1 sequence (P19099 25-503): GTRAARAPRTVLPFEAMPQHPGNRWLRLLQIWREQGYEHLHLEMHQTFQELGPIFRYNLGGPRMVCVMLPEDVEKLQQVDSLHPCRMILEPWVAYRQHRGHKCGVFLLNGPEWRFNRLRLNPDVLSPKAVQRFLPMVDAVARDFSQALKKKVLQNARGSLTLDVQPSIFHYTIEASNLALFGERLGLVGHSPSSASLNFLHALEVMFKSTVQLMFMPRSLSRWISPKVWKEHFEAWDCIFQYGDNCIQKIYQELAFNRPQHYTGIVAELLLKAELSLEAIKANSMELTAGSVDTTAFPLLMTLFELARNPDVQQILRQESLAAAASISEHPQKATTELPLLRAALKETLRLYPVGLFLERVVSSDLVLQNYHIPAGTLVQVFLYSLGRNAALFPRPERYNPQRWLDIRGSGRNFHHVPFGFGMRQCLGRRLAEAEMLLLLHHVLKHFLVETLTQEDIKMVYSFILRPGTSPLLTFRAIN
Briefly: Test for CYP11B2 inhibitors in V79 MZh11B2 cells (test system B). The note with it: for pIC50: Table 1, V79 MZh11B2 cells, read-out: IC50 V79 11B2 hCYP11B2; for inhibition at 0.5 µM: V79MZh11B2, Table 2, percentage inhibition, inhibitor concentration 0.5 μM, read-out: % (0.5 μM) hCYP11B2. In kind it is cell-based. How it is done:
B) Test for CYP11B2 Inhibitors (V79 MZh Cells):
(§1) Maintenance of the cells: V79 MZh11B2 and V79 MZh11B1, which recombinantly express human aldosterone synthase (CYP11B2) or steroid 11-β-hydroxylase CYP11B1) and were prepared according to Denner et al. (Denner, K. et al., Pharmacogenetics 5:89-96 (1995)), were cultured in cell culture dishes of 60 or 90 mm diameter in a CO2 incubator at 37° C. and in a water-saturated atmosphere containing 5% of CO2. Both cell lines were cultured in DMEM^+, which contained 10% of FCS and the antibiotics penicillin and streptomycin (1%) for protection from bacterial contamination. The cells were passaged every 2 to 3 days following treatment with trypsin/EDTA, since the doubling […], according to cell count, was 1 to 2 days. The cells were passaged up to 12 to 15 times in order to exclude possible cell changes. If needed, freshly thawed cells were employed.
(§2) Inhibition test: V79 MZh11B2- and V79 MZh11B1 cells (8·10^5 cells per well) were grown to confluence in 24-well cell culture plates with a 1.9 cm^2 culture area per hole (Nunc, Roskilde, Denmark). Before the test, the DMEM culture medium present was removed, and 450 μl of fresh DMEM with inhibitor were added to each hole in at least three different concentrations in order to determine the IC50 value. After preincubation (60 min, 37° C.), the reaction was started by the addition of 50 μl of DMEM containing 2.5 μl of a solution of the substrate 11-deoxycorticosterone (20 μM, containing 1.25 nCi of [4-^14C]11-deoxycorticosterone, in ethanol). The plate was then kept in the CO2 incubator at 37° C. and under 5% CO2. The V79 MZh11B1 cells were incubated for 120 min, the V79 MZh11B2 cells for 40 min. Controls not containing inhibitor were treated in the same manner. The enzyme reactions were stopped by extraction of the supernatant with 500 μl of EtOAc. The samples were centrifuged (10000×g, 2 min), and the solution was removed and evaporated. The residue was taken up in 10 μl of chloroform and analyzed by HPTLC (see below).
For V79 MZh11B2, the conversion followed according to equation 3: […]
(§3) The percentage inhibition which was caused by an inhibitor in the concentration employed in each case was calculated according to equation 2.
(§4) It was calculated by determining the percentage inhibition at least 3 different inhibitor concentrations, which must all lie in the linear range of the sigmoidal IC50 curve (log C/% inhibition). The calculation was carried out by linear regression. The values determined were only used if they formed a straight line at a probability r of >0.95.
(§5) The resuspended residue from example A) or B)—containing the radiolabeled steroids—was applied to an HPTLC plate (20×10 cm, silica gel 60F254) with a concentration zone (Merck, Darmstadt, Germany). The plate was developed twice using the mobile phase chloroform/methanol/water (300:20:1). Unlabeled […] and corticosterone were applied as a reference for the CYP11B1 reaction. For the CYP11B2 reaction, 11-deoxycorticosterone, corticosterone, 18-hydroxycorticosterone and aldosterone were used as a reference. The unlabeled references were detected at 260 nm. Subsequently, imaging plates (BAS MS2340, for ^14C samples, Raytest, Straubenhardt, Germany) were exposed for 48 h with the HPTLC plates. The imaging plates were scanned using the Phosphoimager system Fuji FLA 3000 (Raytest, Straubenhardt, Germany) and the steroids were quantified.

The target of data set [2] is T2, steroid 11-β-hydroxylase CYP11B1 (hCYP11B1) (Homo sapiens, UniProt P15538).
T2 construct: expressed in transfected cells; host or cells: V79 MZh11B1 (V79 Chinese hamster cells)
T2 sequence (P15538 25-503): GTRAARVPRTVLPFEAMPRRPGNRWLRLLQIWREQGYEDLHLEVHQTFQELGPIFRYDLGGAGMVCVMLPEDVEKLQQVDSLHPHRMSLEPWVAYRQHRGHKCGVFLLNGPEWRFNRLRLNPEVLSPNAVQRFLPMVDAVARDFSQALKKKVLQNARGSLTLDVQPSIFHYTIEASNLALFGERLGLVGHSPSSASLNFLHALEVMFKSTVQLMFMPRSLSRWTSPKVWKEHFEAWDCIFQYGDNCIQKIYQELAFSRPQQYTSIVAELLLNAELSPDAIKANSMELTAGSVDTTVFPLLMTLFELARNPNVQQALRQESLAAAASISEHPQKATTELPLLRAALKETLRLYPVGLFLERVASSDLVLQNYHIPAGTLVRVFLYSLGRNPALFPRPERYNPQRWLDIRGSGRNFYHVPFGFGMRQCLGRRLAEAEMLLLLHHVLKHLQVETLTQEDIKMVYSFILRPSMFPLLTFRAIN
Briefly: Inhibition test in V79 MZh11B1 cells (test system B). In kind it is cell-based. The note with it: for pIC50: Table 1, V79 MZh11B1 cells, read-out: IC50 V79 11B1 hCYP11B1; for % (0.5 μM) hCYP11B1: Table 2, percentage inhibition, inhibitor concentration 0.5 μM. How it is done: as §1, §2
In the case of V79 MZh11B1, conversion was calculated analogously to equation 1, wherein: […]
as §3, §4, §5

Take `O=C1CCc2cc(-c3cccnc3)cc(Cl)c2N1` [Example 12, 8-Chloro-6-pyridin-3-yl-3,4-dihydro-1H-quinolin-2-one]: the melting point amounted to 178 °C. Besides, the pIC50 in data set [1] is 8.42. Also, the pIC50 in data set [2] was 5.78.

`COc1cncc(-c2cc3c4c(c2)CCC(=O)N4CCC3)c1` [Example 19, 9-(5-Methoxypyridin-3-yl)-1,2,6,7-tetrahydro-5H-pyrido[3,2,1-ij]quinolin-3-one] registered a melting point of 150 °C. For the same compound, the inhibition at 0.5 µM in data set [1] was 95%. In data set [2], the “% (0.5 μM) hCYP11B1” value amounted to 51%.

`COc1cncc(-c2ccc3c(c2)CCC(=O)N3C)c1` [Example 6, 6-(5-Methoxypyridin-3-yl)-1-methyl-3,4-dihydro-1H-quinolin-2-one] returned a melting point of 159 °C. In addition, the negative logarithm of the IC50 (pIC50) in data set [1] is 9.70. Further, in data set [2], the pIC50 is 7.06.

On to `O=C1CSc2cc(-c3cccnc3)ccc2N1` [Example 14, 7-Pyridin-3-yl-4H-benzo[1,4]thiazin-3-one], for which the melting point turned out to be 240 °C. Moreover, the “% (0.5 μM) hCYP11B1” value in data set [2] was 49%.

`O=C1CCc2cc(-n3ccnc3)cc3c2N1CC3` [Example 28, 8-Imidazol-1-yl-1,2,5,6-tetrahydro-pyrrolo[3,2,1-ij]quinolin-4-one] registered a melting point of 124 °C. In data set [1], the inhibition at 0.5 µM is 87%. Moreover, the “% (0.5 μM) hCYP11B1” value in data set [2] is on record as 24%.

Compound `CCN1C(=O)CCc2cc(-c3cccnc3)ccc21` [Example 9, 1-Ethyl-6-pyridin-3-yl-3,4-dihydro-1H-quinolin-2-one] returned a melting point of 91 °C. Moreover, the negative logarithm of the IC50 (pIC50) in data set [1] is 7.68. In data set [2], the pIC50 is 5.22.

Compound `S=C1CCc2cc(-c3cccnc3)ccc2N1` [Example 8, 6-Pyridin-3-yl-3,4-dihydro-1H-quinoline-2-thione] registered a melting point of 267 °C. Further, the “% (0.5 μM) hCYP11B1” value in data set [2] worked out at 49%.

`CN1C(=O)CCc2cc(-c3cncc4ccccc34)ccc21` [Example 7, 6-Isoquinolin-4-yl-1-methyl-3,4-dihydro-1H-quinolin-2-one] gave a melting point of 176 °C. The “% (0.5 μM) hCYP11B1” value in data set [2] was 97%.

The compound `O=C1CCc2cc(-c3cccnc3)ccc2N1` [Example 1, 6-Pyridin-3-yl-3,4-dihydro-1H-quinolin-2-one] gave a melting point of 189 °C. The pIC50 in data set [1] was 7.55. Besides, the pIC50 in data set [2] is 5.17.
